Assays:
[1] = Tasting session of tap water solutions by a professional panel
Experimental: For a tasting session the following solutions were prepared: • 1) A solution of 0.025% of a composition as prepared in example 1 in tap water; • 2) A solution of 0.025% of a composition as prepared in example 1 and 0.3% NaCl in tap water; • 3) A solution of 0.025% of a composition as prepared in example 1, 0.3% NaCl and 0.03% mono sodium glutamate in tap water; • 4) A solution of 0.005% of a composition as prepared in example 2 in tap water; • 5) A solution of 0.005% of a composition as prepared in example 2 and 0.3% NaCl in tap water; and • 6) A solution of 0.005% of a composition as prepared in example 2, 0.3% NaCl and 0.03% mono sodium glutamate in tap water. • All samples were tasted by a professional panel.

[2] = Tasting of fish bouillon samples by a professional panel; settings: sample 5: fish bouillon + 20 ppm of composition of example 2
Experimental: (§1) Six samples were prepared:
2. Fish bouillon+100 ppm of a composition as prepared in example 1;
5. Fish bouillon+20 ppm of a composition as prepared in example 2; and
(§2) All samples were tasted by a professional panel. There was general agreement about the differences in taste between the samples.

[3] = Tasting of Nam Pla (Thai fish sauce) samples by a professional panel; settings: sample 6: Nam Pla + 20 ppm of composition of example 2
Experimental: as §1
3. Nam Pla* ex Unilever Thailand;
4. Nam Pla ex Unilever Thailand+100 ppm of a composition as prepared in example 1;
6. Nam Pla ex Unilever Thailand+20 ppm of a composition as prepared in example 2.
Nam Pla is a Thai fish sauce produced from a mixture of fish (anchovy), salt and sugar that is fermented for more than 6 months at 30-35° C. Protein hydrolysate and lipid oxidation products are formed through microbiological and enzymatic breakdown of the fish.
as §2

## CC(O)C(=O)NCCc1ccc(O)cc1 (stereo not drawn) [example 2, N-lactoyl tyramine]
[1]; solution 4): 0.005% of composition of example 2 in tap water
  taste description by professional panel: a clean mouthfeel, body and thickness
[1]; solution 5): 0.005% of composition of example 2 and 0.3% NaCl in tap water
  taste description by professional panel: a longlasting effect, a clean mouthfeel, body and thickness and as bouillon-like
[1]; solution 6): 0.005% of composition of example 2, 0.3% NaCl and 0.03% mono sodium glutamate in tap water
  taste description by professional panel: a longlasting effect, a strong clean mouthfeel, body and thickness and as strong, natural and complex bouillon-like
[2]
  difference in taste compared with plain fish bouillon (sample 1): more body and mouthfeel, a stronger sweet taste impression and a more longlasting effect
[3]
  difference in taste compared with plain Nam Pla (sample 3): more body and mouthfeel, a stronger sweet taste impression and a more longlasting effect
  fermented fish character and perceived quality compared with plain Nam Pla (sample 3): a more rounded, natural fermented fish character and was perceived as a higher quality Nam Pla

Source: patent US20080206422A1, “Flavour Modulating Substances” (QUEST INTERNATIONAL SERVICES B.V., priority 2004, published 2008)
